Marks after values point to notes of the source that are not given here.
System: hypertensive subjects
Experiment: Seated automated office blood pressure (AOBP) in randomized, placebo-controlled, dose-ranging study
Type: in vivo, human
Set-up: Difference from placebo in change in blood pressure: unit not given here
Description: A randomized, double-blinded, placebo-controlled, dose-ranging, multicenter study was conducted to evaluate the effect of orally administered Compound A HBr on blood pressure for the treatment of hypertension in male and female subjects ≥18 years of age.
The study consists of two parts. For enrollment into Part 1 of the study, a subject's value of plasma renin activity (PRA) must be ≤1 ng/mL/h based on morning measurement. If the value of PRA >1 ng/mL/h based on morning measurement, then subjects may be eligible to enter Part 2 of the study.
For Part 1, 163 enrolled subjects ≥18 years of age were randomized into 6 equal treatment groups (1:1:1:1:1:1) to 12.5 mg BID, 25 mg BID, 12.5 mg QD, 50 mg QD, 100 mg QD, or placebo. After a review of interim clinical data, the 2 lowest dose levels (12.5 mg QD and 12.5 mg BID) were stopped for future randomization due to a lack of consistent meaningful reduction of blood pressure, but the patients randomized to that point remained in the study through completion. Thus, after the review of interim clinical data, subjects were randomized into 4 equal treatment groups (1:1:1:1) to 25 mg BID, 50 mg QD, 100 mg QD, or placebo.
For Part 2, 36 enrolled subjects ≥18 years of age were randomized (5:1) to either 100 mg QD Compound A HBr or placebo such that the Compound A HBr treatment group consisted of approximately 30 subjects and the placebo treatment group will consist of approximately 6 subjects.
Subjects orally administered the assigned study drug (Compound A HBr or placebo) according to the assigned dosing regimen for 8 weeks beginning on Study Day 1. All subjects in Part 1 (regardless of dosing group) received BID dosing to preserve the integrity of the blind; active drug is administered as the morning dose for all QD dose groups. Subjects returned to the research facility or were seen by the clinical investigator or approved home health care professional at the end of Study Weeks 1, 2, 3, 4, 5, 6, 7, and 8 (±2 days) for protocol-defined efficacy and safety assessments and procedures, assessment of adverse events (AEs), and confirmation of compliance with study drug usage. Subjects also completed a telephone visit and blood pressure (BP) check at home approximately 3 days post last dose of study drug. Subjects attended up to 14 full clinic visits, including a pre-Screening visit, a Screening/start of Placebo Run-in visit, a second visit during Placebo Run-in, a clinic visit to initiate the ABPM procedure, a Randomization visit, 8 weekly visits during double-blind treatment, and an end-of-study visit scheduled 4 weeks after the last study treatment for final efficacy and safety assessments.
An automated oscillometric sphygmomanometer device was used to measure the subjects' systolic and diastolic blood pressure in office after approximately 5 minutes of rest in the seated position.
The primary endpoint is the change in office-measured (mean of last 2 of 5 unattended measurements using an automated oscillometric sphygmomanometer device after approximately 5 minutes of rest in the seated position) systolic blood pressure (SBP) from baseline to the end of Study Week 8.
Secondary endpoints of this study were: • (a) Change in 24-hour ambulatory blood pressure monitoring (ABPM) parameters (systolic and diastolic) from baseline to the end of Study Week 7. • (b) Change in office-measured SBP from baseline to the end of Study Weeks 1, 2, 3, 4, 5, 6, and 7. • (c) Change in office-measured diastolic blood pressure (DBP) from baseline to the end of Study Weeks 1, 2, 3, 4, 5, 6, 7, and 8. • (d) Proportion of subjects who achieve office-measured BP of ≤130/80 mm Hg by the end of Study Week 8.

[1] = 100 mg QD Part 1, Week 8, Parts 1 & 2 model, FAS

CC(=O)N[C@H]1CC[C@H](NC(=O)CN2CCN(c3nncc(-c4ccc(C)cc4)n3)CC2)CC1 [Compound A HBr]
Placebo-adjusted reduction in AOBP SBP, concomitant use of thiazide diuretics (50 mg QD, Part 1, Week 8): −12.9 mmHg | Difference from placebo in change in blood pressure (50 mg QD, Thiazide No): −4.3 | Difference from placebo in change in blood pressure (50 mg QD, Thiazide Yes): −13.2* | Seated AOBP DBP change from baseline (CFB), Mean (SD) (50 mg QD, Week 1, Part 1, FAS): −4.34 (8.86) mmHg | Seated AOBP DBP, Mean (SD) (50 mg QD, Week 1, Part 1, FAS): 80.54 (7.58) mmHg | Seated AOBP SBP change from baseline (CFB), Mean (SD) (50 mg QD, Week 1, Part 1, FAS): −8.32 (14.27) mmHg | Seated AOBP SBP, Mean (SD) (50 mg QD, Week 1, Part 1, FAS): 133.50 (12.23) mmHg | Seated AOBP DBP change from baseline (CFB), Mean (SD) (50 mg QD, Week 2, Part 1, FAS): −5.91 (7.38) mmHg | Seated AOBP DBP, Mean (SD) (50 mg QD, Week 2, Part 1, FAS): 78.96 (8.27) mmHg | Seated AOBP SBP change from baseline (CFB), Mean (SD) (50 mg QD, Week 2, Part 1, FAS): −9.54 (13.78) mmHg | Seated AOBP SBP, Mean (SD) (50 mg QD, Week 2, Part 1, FAS): 132.29 (10.55) mmHg | Seated AOBP DBP change from baseline (CFB), Mean (SD) (50 mg QD, Week 3, Part 1, FAS): −3.84 (8.83) mmHg | Seated AOBP DBP, Mean (SD) (50 mg QD, Week 3, Part 1, FAS): 81.04 (9.15) mmHg | Seated AOBP SBP change from baseline (CFB), Mean (SD) (50 mg QD, Week 3, Part 1, FAS): −9.50 (16.67) mmHg | Seated AOBP SBP, Mean (SD) (50 mg QD, Week 3, Part 1, FAS): 132.32 (13.45) mmHg | LSM Δ with Placebo, seated AOBP DBP (MMRM) (50 mg QD, Week 4, Part 1, FAS): −3.95 mmHg | Modelled (MMRM) LSM (SEM) change from baseline, seated AOBP DBP (50 mg QD, Week 4, Part 1, FAS): −4.49 (1.41) mmHg | Seated AOBP DBP change from baseline (CFB), Mean (SD) (50 mg QD, Week 4, Part 1, FAS): −5.30 (8.33) mmHg | Seated AOBP DBP, Mean (SD) (50 mg QD, Week 4, Part 1, FAS): 79.57 (8.36) mmHg | Seated AOBP SBP change from baseline (CFB), Mean (SD) (50 mg QD, Week 4, Part 1, FAS): −9.07 (15.77) mmHg | Seated AOBP SBP, Mean (SD) (50 mg QD, Week 4, Part 1, FAS): 132.75 (11.85) mmHg | Seated AOBP DBP change from baseline (CFB), Mean (SD) (50 mg QD, Week 5, Part 1, FAS): −6.10 (7.22) mmHg | Seated AOBP DBP, Mean (SD) (50 mg QD, Week 5, Part 1, FAS): 78.58 (7.53) mmHg | Seated AOBP SBP change from baseline (CFB), Mean (SD) (50 mg QD, Week 5, Part 1, FAS): −8.38 (15.19) mmHg | Seated AOBP SBP, Mean (SD) (50 mg QD, Week 5, Part 1, FAS): 134.27 (15.39) mmHg | Seated AOBP DBP change from baseline (CFB), Mean (SD) (50 mg QD, Week 6, Part 1, FAS): −6.26 (8.48) mmHg | Seated AOBP DBP, Mean (SD) (50 mg QD, Week 6, Part 1, FAS): 78.63 (8.17) mmHg | Seated AOBP SBP change from baseline (CFB), Mean (SD) (50 mg QD, Week 6, Part 1, FAS): −10.72 (14.86) mmHg | Seated AOBP SBP, Mean (SD) (50 mg QD, Week 6, Part 1, FAS): 131.11 (12.49) mmHg | Seated AOBP DBP change from baseline (CFB), Mean (SD) (50 mg QD, Week 7, Part 1, FAS): −3.75 (11.03) mmHg | Seated AOBP DBP, Mean (SD) (50 mg QD, Week 7, Part 1, FAS): 80.88 (11.41) mmHg | Seated AOBP SBP change from baseline (CFB), Mean (SD) (50 mg QD, Week 7, Part 1, FAS): −7.69 (18.91) mmHg | Seated AOBP SBP, Mean (SD) (50 mg QD, Week 7, Part 1, FAS): 133.19 (16.39) mmHg | LSM Δ from Placebo, change from baseline in seated AOBP SBP (MMRM) (50 mg QD, Week 8, Part 1, FAS): −9.58 mmHg | LSM Δ with Placebo, seated AOBP DBP (MMRM) (50 mg QD, Week 8, Part 1, FAS): −5.46 mmHg | Modelled (MMRM) LSM (SEM) change from baseline, seated AOBP DBP (50 mg QD, Week 8, Part 1, FAS): −7.09 (1.70) mmHg | Modelled (MMRM) LSM (SEM) change from baseline, seated AOBP SBP (50 mg QD, Week 8, Part 1, FAS): −13.69 (2.67) mmHg | Seated AOBP DBP change from baseline (CFB), Mean (SD) (50 mg QD, Week 8, Part 1, FAS): −8.05 (9.13) mmHg | Seated AOBP DBP, Mean (SD) (50 mg QD, Week 8, Part 1, FAS): 76.82 (9.82) mmHg | Seated AOBP SBP change from baseline (CFB), Mean (SD) (50 mg QD, Week 8, Part 1, FAS): −13.18 (17.17) mmHg | Seated AOBP SBP, Mean (SD) (50 mg QD, Week 8, Part 1, FAS): 128.64 (13.69) mmHg | Subjects with seated AOBP SBP/DBP ≤130/80 mmHg: No (50 mg QD, Week 8, Part 1, FAS): 16 (57.1) n (%) | Subjects with seated AOBP SBP/DBP ≤130/80 mmHg: Yes (50 mg QD, Week 8, Part 1, FAS): 12 (42.9) n (%) | Modelled (MMRM) LSM (SEM) change from baseline, seated AOBP DBP (100 mg QD Part 1, Week 4, Parts 1 & 2 model, FAS): −5.88 (1.49) mmHg | Modelled (MMRM) LSM (SEM) change from baseline, seated AOBP DBP [1]: −4.57 (1.53) mmHg | Modelled (MMRM) LSM (SEM) change from baseline, seated AOBP SBP [1]: −12.08 (2.68) mmHg

Source: patent US20260053811A1, “METHODS OF TREATING HYPERTENSION IN OBESE SUBJECTS” (Mineralys Therapeutics, Inc., priority 2022, published 2026)
